Assays:
[1] = tested on: Plasmopara viticola; assay: Antisporulant activity against vine downy mildew (PVA); type: in vivo; conditions: vine leaves, antisporulant foliar spray, 600 ppm, 750 l/ha
Procedure, shortened: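 Cabernet Sauvignon vines (~8 cm) inoculated on lower leaf surfaces with 5×10^4 zoosporangia/ml, held 24 h at 21° C high humidity then 24 h glasshouse. Infected leaves sprayed underside with 600 ppm compound in 1:1 water/acetone, 0.04% Tween 20, 750 l/ha; 96 h glasshouse, 24 h humidity. Sporulating leaf area rated versus control.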

[2] = tested on: Alternaria solani; assay: Activity against tomato early blight (AS); type: in vivo; conditions: Table VI; tomato seedlings, contact prophylactic foliar spray, 4 days
Procedure, shortened: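 Plants were challenged with A. solani conidia (10^4 spores/ml) 24 h after a protective foliar spray of compound in 50:50 acetone/water plus 0.04% Tween 20. Held humid at 21° C for 4 days, then percent leaf area with lesions was scored as a rating relative to controls.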

[3] = tested on: Botrytis cinerea; assay: Direct protectant activity against broad bean grey mould (BCB); type: in vivo; conditions: direct protectant foliar spray, 600 ppm, 4 days
Procedure, shortened: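 Protectant foliar test: lesion coverage assessed 4 days after inoculation and rated relative to untreated or diluent-sprayed plants. Compound applied at 600 ppm to cv The Sutton leaves 24 h before 10^6 conidia/ml suspension; incubation at 22 °C in high humidity.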

[4] = tested on: Leptosphaeria nodorum; assay: Activity against wheat leafspot (LN); type: in vivo; conditions: direct therapeutic foliar spray, 600 ppm, 6-8 days
Procedure, shortened: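 Therapeutic foliar spray: compound at 600 ppm applied to single-leaf wheat (cv Norman) 24 h after inoculation with 1.5×10^6 conidia/ml. Disease control scored after 6-8 days at 22° C and 70% humidity as lesions per leaf versus untreated or diluent-sprayed controls.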

[5] = tested on: Erysiphe graminis f.sp. hordei; assay: Activity against barley powdery mildew, direct therapeutic (EGT); type: in vivo; conditions: direct therapeutic foliar spray, 600 ppm, up to 7 days
Procedure, shortened: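 A curative spray at 600 ppm was applied to single-leaf Golden Promise barley inoculated with powdery mildew conidia the previous day. After up to 7 days at 18 °C and 40% humidity, disease control was rated from percent leaf area sporulating relative to untreated or diluent-sprayed controls.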

[6] = tested on: Erysiphe graminis f.sp. hordei; assay: Direct protectant activity against barley powdery mildew (EGP); type: in vivo; conditions: direct protectant foliar spray, 8 days
Procedure, shortened: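 Rating reflects percentage of leaf area with sporulation compared with untreated or diluent-sprayed controls. Protectant spray was applied to single-leaf barley (cv Golden Promise) 24 h before conidia inoculation. Plants were kept at 18 °C and 40% RH throughout, with 8 days of disease development.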

[7] = tested on: Phytophthora infestans; type: in vivo; conditions: tomato, direct protectant foliar spray
[8] = tested on: Pseudocercosporella herpotrichoides; assay: Activity against wheat eyespot in-vitro (PHI); type: cell-based; conditions: 10 ppm, 10 days, 20° C., mycelial growth
Procedure, shortened: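 Mycelial growth was scored after 10 days at 20 °C against untreated or diluent controls. The broth was half-strength potato dextrose, holding 10 ppm test compound (from acetone) and 5×10^4 fragments/ml of the eyespot fungus.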

[9] = tested on: Rhizoctonia solani; assay: Activity against Rhizoctonia in-vitro (RSI); type: cell-based; conditions: 10 ppm, 10 days, 20° C., mycelial growth
Procedure, shortened: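 Compound at a final 10 ppm (acetone vehicle) in half-strength PDB, inoculated with 5×10^4 fragments/ml of shaken-culture R. solani mycelium. After incubation at 20° C for 10 days, growth scored as a rating versus untreated or diluent-treated controls.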

[10] = tested on: Venturia inaequalis; assay: Activity against apple scab in-vitro (VII); type: cell-based; conditions: 10 ppm, 10 days, 20° C., mycelial growth
Procedure, shortened: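 V. inaequalis propagules (5×10^4/ml, malt agar-grown) were exposed in half-strength PDB to 10 ppm final test compound delivered in acetone. Growth was scored after incubation for 10 days at 20° C, as a rating relative to untreated or diluent-sprayed controls.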

[11] = tested on: Pyricularia oryzae; type: in vivo; conditions: rice seedlings, direct therapeutic foliar spray, 600 ppm, 4-5 days

SMILES	disease control rating PVA [1]	disease control rating AS [2]	disease control rating BCB [3]	disease control rating LN [4]	disease control rating EGT [5]	disease control rating EGP [6]	disease control rating PIP [7]	disease control rating PHI [8]	disease control rating RSI [9]	disease control rating VII [10]	disease control rating PO [11]
CCCCCCNC1COC2(CCC(C(C)(C)C)CC2)C1 (stereo not drawn) [Compound 37]	0 (less than 50% disease control)	0 (less than 50% disease control)	1 (about 50-80% disease control)	0 (less than 50% disease control)	2 (greater than 80% disease control)	2 (greater than 80% disease control)	0 (less than 50% disease control)	1 (about 50-80% disease control)	0 (less than 50% disease control)	0 (less than 50% disease control)	0 (less than 50% disease control)
CCCCCN(CCCC)C1COC2(CCC(C(C)(C)C)CC2)C1 (stereo not drawn) [Compound 74]	0 (less than 50% disease control)	0 (less than 50% disease control)	0 (less than 50% disease control)	0 (less than 50% disease control)	2 (greater than 80% disease control)	2 (greater than 80% disease control)	0 (less than 50% disease control)	0 (less than 50% disease control)	0 (less than 50% disease control)	0 (less than 50% disease control)	0 (less than 50% disease control)
CN(CC(C)(C)C)C1COC2(CCC(C(C)(C)C)CC2)C1 (stereo not drawn) [Compound 131]	0 (less than 50% disease control)	0 (less than 50% disease control)	0 (less than 50% disease control)	0 (less than 50% disease control)	2 (greater than 80% disease control)	2 (greater than 80% disease control)	0 (less than 50% disease control)	0 (less than 50% disease control)	0 (less than 50% disease control)	1 (about 50-80% disease control)	0 (less than 50% disease control)
CCCN(CC(C)C)C1COC2(CCC(C(C)(C)C)CC2)C1 (stereo not drawn) [Compound 123]	0 (less than 50% disease control)	0 (less than 50% disease control)	0 (less than 50% disease control)	0 (less than 50% disease control)	2 (greater than 80% disease control)	2 (greater than 80% disease control)	0 (less than 50% disease control)	0 (less than 50% disease control)	0 (less than 50% disease control)	0 (less than 50% disease control)	1 (about 50-80% disease control)
CC(=CC(=O)CC(C)C)NC1COC2(CCC(C(C)(C)C)CC2)C1 (stereo not drawn) [Compound 124]	0 (less than 50% disease control)	0 (less than 50% disease control)	0 (less than 50% disease control)	0 (less than 50% disease control)	2 (greater than 80% disease control)	2 (greater than 80% disease control)	2 (greater than 80% disease control)	0 (less than 50% disease control)	0 (less than 50% disease control)	0 (less than 50% disease control)	0 (less than 50% disease control)
CC(C)NC1COC2(CCC(C(C)(C)C)CC2)C1 (stereo not drawn) [Compound 63]	0 (less than 50% disease control)	0 (less than 50% disease control)	0 (less than 50% disease control)	0 (less than 50% disease control)	2 (greater than 80% disease control)	2 (greater than 80% disease control)	0 (less than 50% disease control)	0 (less than 50% disease control)	0 (less than 50% disease control)	0 (less than 50% disease control)	0 (less than 50% disease control)
CCCCCNC1COC2(CCC(C(C)(C)CC)CC2)C1 (stereo not drawn) [Compound 49]	0 (less than 50% disease control)	0 (less than 50% disease control)	0 (less than 50% disease control)	2 (greater than 80% disease control)	2 (greater than 80% disease control)	2 (greater than 80% disease control)	2 (greater than 80% disease control)	2 (greater than 80% disease control)	1 (about 50-80% disease control)	1 (about 50-80% disease control)	0 (less than 50% disease control)
CCCN(CC1(C)CCCCC1)C1COC2(CCC(C(C)(C)C)CC2)C1 (stereo not drawn) [Compound 127]	0 (less than 50% disease control)	0 (less than 50% disease control)	0 (less than 50% disease control)	0 (less than 50% disease control)	2 (greater than 80% disease control)	2 (greater than 80% disease control)	0 (less than 50% disease control)	0 (less than 50% disease control)	0 (less than 50% disease control)	1 (about 50-80% disease control)	0 (less than 50% disease control)
CCCCC(CC)NC1COC2(CCC(C(C)(C)C)CC2)C1 (stereo not drawn) [Compound 102]	0 (less than 50% disease control)	0 (less than 50% disease control)	1 (about 50-80% disease control)	0 (less than 50% disease control)	2 (greater than 80% disease control)	2 (greater than 80% disease control)	0 (less than 50% disease control)	0 (less than 50% disease control)	0 (less than 50% disease control)	2 (greater than 80% disease control)	0 (less than 50% disease control)

Reference: patent US5591741A, “Fungicidal spiroheterocyclic derivatives” (American Cyanamid Company, priority 1993, dated 1997)
